Experimental data published in PMC8875629, “Novel Antioxidant Peptides from Crassostrea Hongkongensis Improve Photo-Oxidation in UV-Induced HaCaT Cells” (Marine Drugs, 2022).

How the values were obtained:
MMP-1 = MMP-1 expression in UV-irradiated HaCaT cells, ELISA; format: cell-based, human
Method: PINP and MMP-1 levels were measured in cell culture media using enzyme-linked immunoassay (ELISA) kits (Yutong Biological Technology Co., Changzhou, China). All experiments were conducted according to the manufacturer’s instructions. Purified Human MMP-1 antibody is coated in microtiter plate wells, making solid-phase antibodies. Then add the sample to the wells, a Combined antibody which With HRP labeled, become antibody-antigen-enzyme-antibody complex, after washing Completely, Add TMB substrate solution, TMB substrate becomes blue color At HRP enzyme-catalyzed, the reaction is terminated by the addition of a sulphuric acid solution and the color change is measured spectrophotometrically at a wavelength of 450 nm. The concentration of MMP-1 in the samples is then determined by comparing the O.D. of the samples to the standard curve. The content of PINP was determined on the same principles.

HaCaT cells = test: Cytotoxicity in HaCaT cells, CCK-8; settings: serum-free medium
Method: Cells were cultured in Dulbecco’s modified Eagle’s medium (DMEM; Gibco, Thermo Fisher Scientific, Waltham, MA, USA) supplemented with 10% heat-inactivated fetal bovine serum (FBS; Gibco) and 1% antibiotics [100 U/mL penicillin and 100 µg/mL streptomycin (Invitrogen, Thermo Fisher Scientific, Waltham, MA, USA)] at 37 °C in a humidified 5% CO2 incubator (SANYO, Ōsaka, JPN). HaCaT cells were subcultured when they reached 80% to 90% confluence. Cells were cultured for 12 h in 10% heat-inactivated FBS before being used for experiments. When required, HaCaT cells were treated with OPs in a serum-free medium and incubated under the same conditions (Figure 15B).
Cell viability was evaluated by measuring the dehydrogenase-catalyzed formation of a yellow dye in living cells. In the presence of electronic coupling reagents, WST-8 (tetrazolium salt 2-(2-methoxy-4-nitrophenyl)-3-(4-nitrophenyl)-5-(2,4-disulfophenyl) -2H-tetrazolium, monosodium salt (CCK-8)) is reduced to formazan, a yellow dye, by dehydrogenase.
Cells were seeded on 96-well plates at a density of 1 × 10^4 cells/well; viability was measured 24 h after UV-irradiation. […] Absorbance was measured using a microplate reader (Varioskan Flash; Thermo, Waltham, MA, USA) at λ = 450 nm. […] Cytotoxicity and optimal concentrations of OPs were determined using similar steps.

[1] = test system: UV-irradiated HaCaT cells; test: Cell viability of UV-irradiated HaCaT cells after pretreatment, CCK-8; format: cell-based, human; settings: pretreatment one day, UV-irradiation
Method: For UV-irradiation (Combined UVA and UVB irradiation), HaCaT cells were cultured in 6-well plates (3 × 10^5 cells/well), 12-well plates (1 × 10^5 cells/well), and 96-well plates (1 × 10^4 cells/well) for one day. When cells sufficiently adhered, the medium was removed and cells were washed twice with PBS. Each well contained a thin layer of PBS to keep cell surfaces from drying. The lids of culture plates were opened, and the plates were placed under a UV lamp emitting both UVA (365 nm) and UVB (310 nm) light for 8 min. Irradiation dose was calculated as: Dose (mJ/cm^2) = Exposure time (s) × Intensity (mW/cm^2). After irradiation, cells were washed with warm PBS and incubated with serum-free DMEM for one day or longer.

Substance | Abnormal upregulation of MMP-1 (synthetic peptides) (MMP-1) | Concentration without cytotoxicity (HaCaT cells) | Effect on survival of UV-irradiated HaCaT cells [1]
AIVAEVNEAAK [Peptide I, synthesized peptide identified in OP5-3] | most prominent effect |  | 
GVAMNPVDHPHGGGEGR [Peptide V] |  | 0 to 200000 ng/mL | 
LICIVPK [Peptide VI] |  | 0 to 600000 ng/mL | beneficial effects
TALAIDAIINQK [Peptide III, synthesized peptide identified in OP5-3] |  |  | beneficial effects
